This is an account of results in patent publication US5998433A, “Condensed compounds, their production and use” (Takeda Chemical Industries, Ltd., priority 1994, dated 1999).

Experiment [1] relates to Candida albicans IFO 0583. The experiment can be described thus: Antifungal activity (agar plate dilution method), organism A. The format is cell-based. The conditions noted are these: IFO0583, 35° C., 20 hours, pH 7.0. Here is the method:
(§1) Determination of Antifungal Activity (Agar Plate Dilution Method)
(§2) RPMI 1640 (Gibco BRL) was dissolved in 0.3 M MOPS buffer, pH 7.0, to obtain a 2-fold dilution; this solution was filtered to remove germ cells (0.45 μm). Separately, 1.4% agar (Wako Pure Chemical Industries) was thermally sterilized (121° C., 15 minutes). This agar was mixed with an equal amount of the above 2-fold diluted RPMI 1640 (0.15 M MOPS, pH 7.0). To 9.9 ml of this RPMI 1640 (0.15 M MOPS, pH 7.0)-0.7% agar medium, 0.1 ml of a 100-fold diluted DMSO solution of the test drug was added; this mixture was prepared as an agar plate in a petri dish 9 cm in diameter. The drug (dissolved in DMSO to 100-fold dilution) was used in a series of 2-fold dilutions of a starting concentration of 64 μg/ml in the agar medium. For drug-free control, an agar medium containing 0.1 ml of DMSO or […] of sterile water was prepared. An inoculum of frozen cells was diluted with physiological saline and spot inoculated onto the agar medium (0.005 ml; 700-15,000 cfu) using a microplanter (Sakuma Seisakusho), followed by cultivation at 35° C. for 20 hours. Antifungal activity was assessed macroscopically; the minimum concentration for complete growth inhibition was expressed as MIC (minimum growth inhibitory concentration).

For experiment [2], the system named is Aspergillus fumigatus IFO 6344. The experiment is described as follows: Antifungal activity (agar plate dilution method), organism H. The format is cell-based. The conditions noted are these: IFO6344, 35° C., 20 hours, pH 7.0. Here is the method: as §1, §2
In experiment [3] the test system is Candida tropicalis IFO 0587. The experiment is described as follows: Antifungal activity (agar plate dilution method), organism B. The format is cell-based. The following applies: IFO0587, 35° C., 20 hours, pH 7.0. Here is the method:
as §1, §2

Another experiment concerns Candida utilis IFO 0619. The experiment can be described thus: Antifungal activity (agar plate dilution method), organism G. The format is cell-based. The following applies: Williopsis jadinii, IFO0619, 35° C., 20 hours, pH 7.0. Here is the method: as §1, §2
A further experiment concerns Candida krusei IFO 1162. The experiment is described as follows: Antifungal activity (agar plate dilution method), organism F. The format is cell-based. The following applies: Pichia kudriavzevii, IFO1162, 35° C., 20 hours, pH 7.0. Here is the method: as §1, §2
Experiment [4] deals with Cholesterogenesis in Rat Liver. The experiment can be described thus: Inhibition of cholesterogenesis in rat liver ([14C] acetic acid incorporation). The format is in vivo, male Sprague-Dawley rats. The following applies: by stomach tube, lower values indicate higher inhibitory activity. The protocol: Inhibition of Cholesterogenesis in Rat Liver
An aqueous solution of the test drug was administered, by a stomach tube, to male Sprague-Dawley rats at 5 weeks of age; 1 hour later, [^14 C] acetic acid was intravenously administered at a dose of 10 μCi per animal. One hour later, the animals were bled, livers were excised and a portion of liver was treated with a chloroform:methanol mixture to extract lipids. After the lipid fraction was saponified, sterol was extracted with petroleum ether, precipitated using digitonin and the radioactivity in the precipitate fraction was determined using a scintillation counter. The control group orally received 0.5% methyl cellulose solution alone.
The results are shown in Table 3 (lower percent control values indicate higher cholesterol synthesis inhibitory activity).

Experiment [5] deals with Candida tropicalis IFO 10241. The experiment is described as follows: Antifungal activity (agar plate dilution method), organism C. The format is cell-based. The conditions noted are these: IFO10241, 35° C., 20 hours, pH 7.0. Here is the method:
as §1, §2

Experiment [6] has as its system Aspergillus niger IFO 4414. The experiment can be described thus: Antifungal activity (agar plate dilution method), organism I. The format is cell-based. The following applies: IFO4414, 35° C., 20 hours, pH 7.0. Here is the method: as §1, §2
A further experiment concerns Candida krusei IFO 0584. The experiment can be described thus: Antifungal activity (agar plate dilution method), organism E. The format is cell-based. The following applies: Pichia kudriavzevii, IFO0584, 35° C., 20 hours, pH 7.0. The protocol: as §1, §2
The target in experiment [7] is T1, 2,3-oxidosqualene cyclase (Rattus norvegicus, UniProt P48450).
T1 construct: The supernatant was thus obtained as a crude enzyme solution; from tissue; host or cells: liver of male SD rat, microsome fraction solubilised with n-dodecyl beta-D-maltoside
T1 sequence (P48450 1-733): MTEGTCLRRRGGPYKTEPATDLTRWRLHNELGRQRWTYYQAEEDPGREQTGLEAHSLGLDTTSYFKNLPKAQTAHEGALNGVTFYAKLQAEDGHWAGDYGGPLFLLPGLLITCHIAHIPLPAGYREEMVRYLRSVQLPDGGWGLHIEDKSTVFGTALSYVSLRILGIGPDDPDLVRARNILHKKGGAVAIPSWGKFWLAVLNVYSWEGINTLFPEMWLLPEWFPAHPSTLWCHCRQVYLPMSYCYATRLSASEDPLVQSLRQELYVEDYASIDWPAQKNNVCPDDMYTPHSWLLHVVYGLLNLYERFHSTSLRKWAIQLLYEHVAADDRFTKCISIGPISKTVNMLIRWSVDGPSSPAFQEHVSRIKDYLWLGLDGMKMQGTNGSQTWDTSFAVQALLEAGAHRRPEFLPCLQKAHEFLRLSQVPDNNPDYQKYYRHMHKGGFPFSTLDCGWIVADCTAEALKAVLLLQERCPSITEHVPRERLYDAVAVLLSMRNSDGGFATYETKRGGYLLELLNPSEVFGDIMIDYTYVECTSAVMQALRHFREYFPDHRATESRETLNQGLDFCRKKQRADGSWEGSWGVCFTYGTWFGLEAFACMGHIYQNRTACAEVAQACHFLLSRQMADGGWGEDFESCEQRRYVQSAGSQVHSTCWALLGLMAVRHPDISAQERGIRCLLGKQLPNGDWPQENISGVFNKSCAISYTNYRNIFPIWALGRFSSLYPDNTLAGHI
The experiment is described as follows: Inhibition of 2,3-oxidosqualene cyclase activity (crude rat liver enzyme, lanosterol production, GC/Mass). The format is biochemical. The following applies: 37° C., 20 minutes, pH 7.5; read-out: Oxidosqualene Cyclase Inhibitory Activity IC50. The protocol:
Inhibition of 2,3-oxidosqualene Cyclase Activity
1) Preparation of Crude Rat Enzyme
After a male SD rat (6 weeks of age) was sacrificed by bleeding, the liver was excised. About 50 g of the liver was washed with ice-cold physiological saline and homogenized in 75 ml of ice-cold buffer [100 mM potassium phosphate buffer (pH 7.4), 15 mM nicotinamide, 2 mM MgCl2 ] and centrifuged at 10,000×g for 20 minutes (4° C.). The resulting supernatant was further centrifuged at […] for 90 minutes (4° C.) and the resulting sediment was suspended in ice-cold 100 mM potassium phosphate buffer (pH 7.4), and again centrifuged at 105,000×g for 90 minutes (4° C.). […]
To 200 μl of a reaction mixture containing […] 2,3-oxidosqualene, 50 mM Tris-HCl (pH 7.5), 0.5 mM EDTA, 0.5 mM dithiothreitol, 0.1% Tween 80, 0.25% n-dodecyl β-D-maltoside and the test drug, the crude enzyme (protein content 40 μg) was added and incubated at 37° C. for 20 minutes. […] The resulting lanosterol was quantitated with the cholestane as internal standard (gas chromatograph: Yokogawa-Hewlett-Packard HP-5890J; column: Yokogawa-Hewlett-Packard ULTRA-1, 0.32 mm dia., 0.52μ, 10 m; mass analyzer: JEOL JMS-DX303/DA5000). […]

The subject of experiment [8] is Candida glabrata IFO 0622. The experiment is described as follows: Antifungal activity (agar plate dilution method), organism D. The following applies: Nakaseomyces glabratus, IFO0622, 35° C., 20 hours, pH 7.0. The format is cell-based. The protocol: as §1, §2
Another experiment concerns LDL receptor. The experiment is described as follows: Low-density lipoprotein (LDL) receptor-increasing activity in HepG2 cells. The format is cell-based, human. The conditions noted are these: 20 hours, mean ± SD (n = 3). The protocol:
Determination of Low-density Lipoprotein (LDL) Receptor-increasing Activity
Human hepatoma cell line HepG2 was seeded to 96-multiwell plates (10^4 cells/well) and cultured for 5 days in Dulbecco's minimal essential medium (DMEM) medium supplemented with 10% inactivated fetal bovine serum, followed by 20 hours of pretreatment in 100 μl of DMEM medium containing 10% lipoprotein-deficient fetal bovine serum and the test compound. After being washed with Dulbecco's phosphate-buffered saline (PBS), the cells were fixed in 4% formalin at room temperature for 1 hour. Three hundreds μl of PBS containing 3% bovine serum albumin was added; the mixture was kept standing at 5° C. overnight, after which the PBS was replaced with 50 μl of PBS containing both 5 μg/ml anti-LDL receptor monoclonal antibody (Oncogene Science) and 0.5% bovine serum albumin, followed by incubation at room temperature for 2 hours. After the cells were washed with PBS containing both 0.05% Triton X-100 and 0.5% bovine serum albumin (Triton-containing PBS), 50 μl of 400-fold diluted peroxidase-labeled anti-mouse antibody (produced by BIO-RAD) was added, followed by incubation at room temperature for 1 hour. After the cells were washed with Triton-containing PBS, peroxidase activity was determined using a Peroxidase Assay Kit A (Sumitomo Bakelite Co., Ltd.). LDL receptor-inducing activity was calculated by comparing the peroxidase activity with control activity; data were analyzed for significant difference by Student's t-test. Blank determination was performed in the absence of the anti-LDL receptor monoclonal antibody.

Structures can show the parent of a compound that is named as a salt.

Broadly, the MIC is the lowest concentration that inhibits growth of the organism. The term IC50 denotes the concentration that gives 50% inhibition. Regarding `CN(C)Cc1cc2c(o1)CN(C(=O)CCCCCc1ccccc1)CC2` [Example 5, 1-(2-dimethylaminomethyl-5,7-dihydro-4H-furo[2,3-c]pyridin-6-yl)-6-phenylhexan-1-one hydrochloride], the minimal inhibitory concentration (MIC) is 16 µg/mL in [1]; 8 µg/mL in experiment [2]; 16 µg/mL in [3]; 2 µg/mL against Candida utilis IFO 0619; 8 µg/mL against Candida krusei IFO 1162; 64 µg/mL in experiment [5]. For the same compound, the minimum inhibitory concentration (MIC) in [6] was 8 µg/mL; against Candida krusei IFO 0584, 8 µg/mL; in [8], 32 µg/mL. Moreover, in experiment [4] (30 mg/kg), the “Cholesterol synthesis in rat liver, % of control” value is 48.9 % Control. In addition, the IC50 in experiment [7] came to 15 nM.
Turning to `CN(C)Cc1cc2c(o1)CN(C(=O)c1ccc(C(=O)c3ccccc3)cc1)CC2` [Example 11, N,N-dimethyl-[6-(4-benzoylbenzoyl)-4,5,6,7-tetrahydrofuro[2,3-c]pyridin-2-ylmethyl]amine hydrochloride], the “Cholesterol synthesis in rat liver, % of control” value in [4] (0.3 mg/kg) was 52.6 % Control; in [4] (1.0 mg/kg), 23.3 % Control. The “LDL Receptor Expression (% of Control)” value in the experiment on LDL receptor (0.2 μM) is 113.3 ± 10.6 % of Control; with LDL receptor (2 μM, *p < 0.05), 143.1 ± 19.7 % of Control; in the experiment with LDL receptor (20 μM, *p < 0.05) it was 148.9 ± 20.5 % of Control. Moreover, in experiment [7], the IC50 was 84 nM.
With `CNCc1cc2c(o1)CN(C(=O)CCCCCc1ccccc1)CC2` [Example 38, 1-(2-methylaminomethyl-5,7-dihydro-4H-furo[2,3-c]pyridin-6-yl)-6-phenylhexan-1-one hydrochloride], the “Cholesterol synthesis in rat liver, % of control” value in experiment [4] (30 mg/kg) came out at 29.9 % Control.
As to `CCN(CC)Cc1cc2c(o1)CN(C(=O)c1ccc(C(=O)c3ccccc3)cc1)CC2` [Example 39, N,N-diethyl-[6-(4-benzoylbenzoyl)-4,5,6,7-tetrahydrofuro[2,3-c]pyridin-2-ylmethyl]amine hydrochloride], the “Cholesterol synthesis in rat liver, % of control” value in experiment [4] (3.0 mg/kg) was 64.6 % Control.
For `CN(C)Cc1cc2c(o1)CCN(S(=O)(=O)CCCCCc1ccccc1)C2` [Example 53, N,N-dimethyl-[5-(5-phenylpentylsulfonyl)-4,5,6,7-tetrahydrofuro[3,2-c]pyridin-2-ylmethyl]amine hydrochloride], the “Cholesterol synthesis in rat liver, % of control” value in [4] (10 mg/kg) turned out to be 42.3 % Control.
